Assay results: US8110703B2, “Retinoid derivative and pharmaceutical composition and use thereof” (Anhui Medical University, priority 2008, dated 2012)

Tests used:
[1] = test system: A549 cells; test: Cell cycle and apoptosis by flow cytometry, A549; assay type: cell-based; conditions: A549, 10 μg/ml, 3 days
Procedure: 1.4 Detection of Cell Cycle and Apoptosis by Flow Cytometry A549 cells in the logarithmic phase are collected, regulated with the concentrations thereof to 8×10^7/L, inoculated in a 6-hole board, cultured in an incubator (37° C. and 5% CO2). After the cells are adhered, the culture solution is discarded, and a culture solution having drugs with the corresponding concentrations is added and divided into 10 μg/ml drug groups, 10 μg/ml fenretinide groups, cell control groups, solvent control groups (1‰ DMSO and anhydrous ethanol) (11 in total). After 3 days, each group of cells is normally digested, collected, blown into single cell suspension, washed by cold PBS twice, and re-suspend by 10 μl PBS. Fixing and member breaking agents and a PI staining solution are added according to the Coulter DNA detection kit and reacted with one another at the room temperature and out of light for 30 min for machine detection. Each sample detects 10000 cells and repeats for three times, and the data are analyzed by Analysis software for the ratio during the G0-G1, S and G2-M periods and the ratio of apoptotic cells.

[2] = patient, dosage 200 mg/day; cited from earlier work
[3] = test system: apoptosis; conditions: cited from earlier work

Compound	Apoptosis Rate (%) ([1]; PI flow cytometry)	G0-G1 (%) ([1]; PI flow cytometry)	G2-M (%) ([1]; PI flow cytometry)	S % ([1]; PI flow cytometry) [%]	effect on the apoptosis of A549 cells (ranking in words) [1]	Apoptosis Rate (%) ([1]; in DMSO)	G0-G1 (%) ([1]; in DMSO)	G2-M (%) ([1]; in DMSO)	S % ([1]; in DMSO) [%]	Apoptosis Rate (%) ([1]; in ethanol)	G0-G1 (%) ([1]; in ethanol)	G2-M (%) ([1]; in ethanol)	S % ([1]; in ethanol) [%]	plasma concentration [2]	effective concentration required to generate apoptosis in vivo [3] [µM]
CC1=C(/C=C/C(C)=C/C=C/C(C)=C/C(=O)Oc2ccccc2C(F)(F)F)C(C)(C)CCC1 [Example 2a-03, (2-trifluoromethylphenyl)-(all-trans)-3,7-dimethyl-9-(2,6,6-trimethyl-1-cyclohexen-1-yl)-2,4,6,8-nonatetraenoate]	28.9	45.7	1.01	25.8											
CC1=C(/C=C/C(C)=C/C=C/C(C)=C/C(=O)Nc2cccc(C(F)(F)F)c2)C(C)(C)CCC1 [Example 3a-02, (3-trifluoromethylphenyl)-(all-trans)-3,7-dimethyl-9-(2,6,6-trimethyl-1-cyclohexen-1-yl)-2,4,6,8-nonatetraenoic acid amide]	40.9	35.1	1.62	23.6	most greatly effects on the apoptosis of A549 cells										
CC1=C(/C=C/C(C)=C/C=C/C(C)=C/C(=O)Oc2ccc(N)cc2C(F)(F)F)C(C)(C)CCC1 [Example 4a-02, (4-amino-2-trifluoromethylphenyl)-(all-trans)-3,7-dimethyl-9-(2,6,6-trimethyl-1-cyclohexen-1-yl)-2,4,6,8-nonatetraenoate]	23.9	44.1	1.90	29.4											
CC1=C(/C=C/C(C)=C/C=C/C(C)=C/C(=O)Nc2cccc(OC(F)(F)F)c2)C(C)(C)CCC1 [Example 6a-02, (3-trifluoromethoxyphenyl)-(all-trans)-3,7-dimethyl-9-(2,6,6-trimethyl-1-cyclohexen-1-yl)-2,4,6,8-nonatetraenoic acid amide]	9.79	70.0	1.71	19.0											
CC1=C(/C=C/C(C)=C/C=C/C(C)=C/C(=O)Nc2ccc(O)cc2)C(C)(C)CCC1 [Fenretinide, reference compound]						29.3	47.2	2.09	22.2	14.0	59.3	2.63	24.5	lower than 1 μM	101
